{"source": "paper PMC10176470", "about": "“Engaging a Non-catalytic Cysteine Residue Drives Potent and Selective Inhibition of Caspase-6” (Journal of the American Chemical Society, 2023)", "format_in_all_cases": "cell-based", "key": {"[1]": {"target": "proteins of HEK293T cells transiently overexpressing caspase-6 (Homo sapiens, UniProt Q9P2E9)", "sequence (Q9P2E9 whole entry)": "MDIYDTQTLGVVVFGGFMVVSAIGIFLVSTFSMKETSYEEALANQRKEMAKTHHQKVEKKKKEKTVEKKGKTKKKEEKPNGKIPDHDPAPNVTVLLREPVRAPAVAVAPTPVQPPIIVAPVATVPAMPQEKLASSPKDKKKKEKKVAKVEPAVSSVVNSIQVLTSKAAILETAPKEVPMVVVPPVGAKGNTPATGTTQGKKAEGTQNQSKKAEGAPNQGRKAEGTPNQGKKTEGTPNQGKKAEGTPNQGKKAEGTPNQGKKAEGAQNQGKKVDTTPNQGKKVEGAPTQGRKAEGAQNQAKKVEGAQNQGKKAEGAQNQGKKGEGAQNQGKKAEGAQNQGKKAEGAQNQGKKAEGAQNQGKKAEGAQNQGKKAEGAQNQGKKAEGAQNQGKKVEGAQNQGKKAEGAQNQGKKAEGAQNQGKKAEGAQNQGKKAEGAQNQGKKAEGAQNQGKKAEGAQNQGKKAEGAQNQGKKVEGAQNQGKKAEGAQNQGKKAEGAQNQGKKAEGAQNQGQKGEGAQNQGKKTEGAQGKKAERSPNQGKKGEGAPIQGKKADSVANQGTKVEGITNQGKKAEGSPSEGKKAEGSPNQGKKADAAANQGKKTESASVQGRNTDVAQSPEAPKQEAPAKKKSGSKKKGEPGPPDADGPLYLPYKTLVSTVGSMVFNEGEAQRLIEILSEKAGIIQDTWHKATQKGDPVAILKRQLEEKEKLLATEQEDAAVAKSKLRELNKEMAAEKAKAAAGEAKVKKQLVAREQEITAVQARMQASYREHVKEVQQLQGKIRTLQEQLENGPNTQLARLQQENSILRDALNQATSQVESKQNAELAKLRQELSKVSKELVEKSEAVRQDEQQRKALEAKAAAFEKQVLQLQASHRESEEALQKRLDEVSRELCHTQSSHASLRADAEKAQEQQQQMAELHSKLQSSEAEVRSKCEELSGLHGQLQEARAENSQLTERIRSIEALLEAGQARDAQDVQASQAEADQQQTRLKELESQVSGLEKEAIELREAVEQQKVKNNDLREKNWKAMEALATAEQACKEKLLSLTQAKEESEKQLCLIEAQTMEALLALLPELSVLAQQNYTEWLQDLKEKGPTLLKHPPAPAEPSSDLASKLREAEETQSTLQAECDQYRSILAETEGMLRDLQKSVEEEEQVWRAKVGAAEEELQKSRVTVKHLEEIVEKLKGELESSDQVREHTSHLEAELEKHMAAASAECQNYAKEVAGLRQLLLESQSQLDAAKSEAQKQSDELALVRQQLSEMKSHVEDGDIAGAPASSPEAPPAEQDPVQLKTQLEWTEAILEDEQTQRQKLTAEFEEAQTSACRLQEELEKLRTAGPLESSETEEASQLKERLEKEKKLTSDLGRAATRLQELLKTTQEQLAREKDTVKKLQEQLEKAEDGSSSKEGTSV", "details": "exp_ref Probe; protein RRBP1 (Q9P2E9); analysis C6"}, "[2]": {"target": "proteins of HEK293T cells transiently overexpressing caspase-6 (Homo sapiens, UniProt P09874)", "sequence (P09874 whole entry)": "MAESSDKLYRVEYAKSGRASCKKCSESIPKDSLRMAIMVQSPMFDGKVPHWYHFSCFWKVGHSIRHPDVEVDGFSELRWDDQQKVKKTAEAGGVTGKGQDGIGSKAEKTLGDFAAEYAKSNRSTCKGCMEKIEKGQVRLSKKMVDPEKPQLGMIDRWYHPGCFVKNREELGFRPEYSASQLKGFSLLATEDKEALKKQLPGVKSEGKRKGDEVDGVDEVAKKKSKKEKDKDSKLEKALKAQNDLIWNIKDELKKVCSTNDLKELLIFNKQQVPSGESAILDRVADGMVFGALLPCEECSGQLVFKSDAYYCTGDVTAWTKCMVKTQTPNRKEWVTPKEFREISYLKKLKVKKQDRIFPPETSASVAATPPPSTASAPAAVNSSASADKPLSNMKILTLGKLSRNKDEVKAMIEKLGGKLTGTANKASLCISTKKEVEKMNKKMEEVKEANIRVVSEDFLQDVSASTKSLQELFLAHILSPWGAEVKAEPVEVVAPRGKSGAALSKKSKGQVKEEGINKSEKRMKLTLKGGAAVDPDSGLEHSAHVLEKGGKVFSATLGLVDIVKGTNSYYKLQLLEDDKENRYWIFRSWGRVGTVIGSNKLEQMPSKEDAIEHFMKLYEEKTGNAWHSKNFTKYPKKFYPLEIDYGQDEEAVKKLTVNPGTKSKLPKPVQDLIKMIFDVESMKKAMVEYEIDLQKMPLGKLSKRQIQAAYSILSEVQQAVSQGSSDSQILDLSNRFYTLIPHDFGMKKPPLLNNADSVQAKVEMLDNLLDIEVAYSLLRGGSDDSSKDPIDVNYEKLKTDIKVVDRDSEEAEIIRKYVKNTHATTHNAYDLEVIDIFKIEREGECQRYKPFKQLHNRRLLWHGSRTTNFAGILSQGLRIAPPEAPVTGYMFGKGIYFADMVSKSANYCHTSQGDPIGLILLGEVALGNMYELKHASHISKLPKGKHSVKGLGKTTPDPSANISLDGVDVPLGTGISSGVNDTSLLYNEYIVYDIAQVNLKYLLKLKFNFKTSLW", "details": "protein PARP1 (P09874)"}, "[3]": {"target": "proteins of HEK293T cells transiently overexpressing caspase-6 (Homo sapiens, UniProt Q14980)", "details": "exp_ref Probe; protein NUMA1 (Q14980); analysis C6"}, "[4]": {"target": "proteins of HEK293T cells transiently overexpressing caspase-6 (Homo sapiens, UniProt P02533)", "details": "Probe; protein KRT14 P02533"}, "[5]": {"target": "T1, proteins of HEK293T cells transiently overexpressing caspase-6 (Homo sapiens, UniProt Q96F45)", "T1 sequence (Q96F45 1-646)": "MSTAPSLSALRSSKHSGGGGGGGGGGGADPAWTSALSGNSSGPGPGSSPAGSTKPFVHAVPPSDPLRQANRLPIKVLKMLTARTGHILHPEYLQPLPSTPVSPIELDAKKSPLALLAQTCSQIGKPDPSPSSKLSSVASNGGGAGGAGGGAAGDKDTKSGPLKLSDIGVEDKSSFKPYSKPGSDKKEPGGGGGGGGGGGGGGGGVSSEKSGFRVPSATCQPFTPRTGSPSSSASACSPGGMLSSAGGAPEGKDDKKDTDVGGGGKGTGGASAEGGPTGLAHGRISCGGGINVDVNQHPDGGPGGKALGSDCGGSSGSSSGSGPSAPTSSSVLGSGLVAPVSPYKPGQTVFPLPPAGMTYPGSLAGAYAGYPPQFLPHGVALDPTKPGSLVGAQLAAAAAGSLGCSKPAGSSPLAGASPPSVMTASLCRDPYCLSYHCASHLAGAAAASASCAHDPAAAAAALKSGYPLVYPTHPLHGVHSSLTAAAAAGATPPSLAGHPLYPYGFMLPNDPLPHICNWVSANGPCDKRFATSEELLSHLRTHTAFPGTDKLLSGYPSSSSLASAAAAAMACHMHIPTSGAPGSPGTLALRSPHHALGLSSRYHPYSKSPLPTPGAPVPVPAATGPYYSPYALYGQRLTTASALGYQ", "details": "protein ZNF503 (Q96F45), analysis C6"}, "[6]": {"target": "proteins of HEK293T cells transiently overexpressing caspase-6 (Homo sapiens, UniProt P10599)", "sequence (P10599 whole entry)": "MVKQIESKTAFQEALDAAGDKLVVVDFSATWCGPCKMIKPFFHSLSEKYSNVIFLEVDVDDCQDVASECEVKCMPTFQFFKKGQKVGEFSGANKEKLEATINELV", "details": "exp_ref Probe; protein TXN (P10599); analysis C6"}, "[7]": {"target": "proteins of HEK293T cells transiently overexpressing caspase-6 (Homo sapiens, UniProt P00338)", "details": "Probe; protein LDHA P00338"}, "[8]": {"target": "proteins of HEK293T cells transiently overexpressing caspase-6 (Homo sapiens, UniProt Q00610)", "details": "exp_ref Probe; protein CLTC (Q00610); analysis C6"}, "[9]": {"target": "proteins of HEK293T cells transiently overexpressing caspase-6 (Homo sapiens, UniProt P0DPI2)", "sequence (P0DPI2 42-268)": "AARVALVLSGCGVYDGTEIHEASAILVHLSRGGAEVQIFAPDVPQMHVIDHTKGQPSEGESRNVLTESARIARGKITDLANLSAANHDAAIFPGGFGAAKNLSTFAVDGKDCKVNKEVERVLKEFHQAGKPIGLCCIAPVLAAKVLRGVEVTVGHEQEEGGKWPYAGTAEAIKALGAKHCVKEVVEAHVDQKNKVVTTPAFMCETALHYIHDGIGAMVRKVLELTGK", "details": "exp_ref Probe; protein C21orf33 (P30042); analysis C6"}, "[10]": {"target": "proteins of HEK293T cells transiently overexpressing caspase-6 (Homo sapiens, UniProt P43487)", "details": "exp_ref Probe; protein RANBP1 (P43487); analysis C6"}, "[11]": {"target": "proteins of HEK293T cells transiently overexpressing caspase-6 (Homo sapiens, UniProt P25788)", "sequence (P25788 whole entry)": "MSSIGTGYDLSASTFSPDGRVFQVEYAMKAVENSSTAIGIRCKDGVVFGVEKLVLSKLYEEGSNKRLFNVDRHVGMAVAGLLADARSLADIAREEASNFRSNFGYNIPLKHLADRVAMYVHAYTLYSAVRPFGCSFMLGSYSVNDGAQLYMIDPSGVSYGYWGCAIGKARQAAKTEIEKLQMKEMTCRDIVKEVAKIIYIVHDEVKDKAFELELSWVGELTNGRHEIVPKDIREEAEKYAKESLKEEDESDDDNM", "details": "Probe; protein PSMA3 P25788"}, "[12]": {"target": "proteins of HEK293T cells transiently overexpressing caspase-6 (Homo sapiens, UniProt P13645)", "sequence (P13645 whole entry)": "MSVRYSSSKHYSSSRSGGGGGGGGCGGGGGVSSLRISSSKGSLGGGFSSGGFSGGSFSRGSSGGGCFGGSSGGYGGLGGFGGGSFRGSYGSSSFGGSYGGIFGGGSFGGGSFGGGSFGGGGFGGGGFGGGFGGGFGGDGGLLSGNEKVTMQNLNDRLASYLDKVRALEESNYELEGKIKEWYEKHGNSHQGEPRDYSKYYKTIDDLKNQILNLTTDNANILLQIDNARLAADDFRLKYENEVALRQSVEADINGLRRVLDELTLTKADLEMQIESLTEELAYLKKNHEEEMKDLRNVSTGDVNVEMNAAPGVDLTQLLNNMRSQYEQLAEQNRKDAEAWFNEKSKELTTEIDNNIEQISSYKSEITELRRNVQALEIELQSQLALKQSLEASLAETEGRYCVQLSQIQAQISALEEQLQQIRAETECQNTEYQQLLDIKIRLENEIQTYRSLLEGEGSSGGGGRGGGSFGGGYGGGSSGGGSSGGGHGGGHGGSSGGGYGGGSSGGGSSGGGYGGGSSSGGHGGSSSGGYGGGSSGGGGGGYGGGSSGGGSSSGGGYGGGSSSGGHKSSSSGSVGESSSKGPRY", "details": "Probe; protein KRT10 P13645"}, "[13]": {"target": "proteins of HEK293T cells transiently overexpressing caspase-6 (Homo sapiens, UniProt Q96SB4)", "sequence (Q96SB4 whole entry)": "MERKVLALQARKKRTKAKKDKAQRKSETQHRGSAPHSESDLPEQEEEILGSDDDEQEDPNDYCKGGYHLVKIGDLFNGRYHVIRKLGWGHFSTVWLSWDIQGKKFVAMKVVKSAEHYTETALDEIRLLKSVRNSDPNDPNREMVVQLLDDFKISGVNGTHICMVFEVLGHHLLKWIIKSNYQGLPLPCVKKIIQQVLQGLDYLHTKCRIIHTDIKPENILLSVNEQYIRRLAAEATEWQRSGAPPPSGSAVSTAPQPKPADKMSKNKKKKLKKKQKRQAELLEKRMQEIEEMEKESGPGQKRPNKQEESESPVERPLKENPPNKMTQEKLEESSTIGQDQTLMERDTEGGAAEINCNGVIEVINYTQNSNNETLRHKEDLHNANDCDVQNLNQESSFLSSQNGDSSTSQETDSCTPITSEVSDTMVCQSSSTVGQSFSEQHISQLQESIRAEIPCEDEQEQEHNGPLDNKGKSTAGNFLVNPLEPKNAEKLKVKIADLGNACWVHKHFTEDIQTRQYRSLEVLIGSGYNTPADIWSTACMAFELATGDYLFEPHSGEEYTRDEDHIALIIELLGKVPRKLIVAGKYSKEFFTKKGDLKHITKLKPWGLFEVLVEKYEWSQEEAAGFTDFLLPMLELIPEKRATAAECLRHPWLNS", "details": "protein SRPK1 (Q96SB4); exp_ref Probe; analysis C6"}, "[14]": {"target": "proteins of HEK293T cells transiently overexpressing caspase-6 (Homo sapiens, UniProt P37802)", "sequence (P37802 whole entry)": "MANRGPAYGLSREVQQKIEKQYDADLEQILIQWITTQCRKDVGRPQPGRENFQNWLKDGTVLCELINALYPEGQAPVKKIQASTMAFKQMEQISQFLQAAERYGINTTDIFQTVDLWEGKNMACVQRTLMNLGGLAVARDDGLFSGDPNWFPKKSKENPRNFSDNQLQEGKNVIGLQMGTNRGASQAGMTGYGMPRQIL", "details": "exp_ref Probe; protein TAGLN2 (P37802); analysis C6"}, "[15]": {"target": "proteins of HEK293T cells transiently overexpressing caspase-6 (Homo sapiens, UniProt P17987)", "sequence (P17987 whole entry)": "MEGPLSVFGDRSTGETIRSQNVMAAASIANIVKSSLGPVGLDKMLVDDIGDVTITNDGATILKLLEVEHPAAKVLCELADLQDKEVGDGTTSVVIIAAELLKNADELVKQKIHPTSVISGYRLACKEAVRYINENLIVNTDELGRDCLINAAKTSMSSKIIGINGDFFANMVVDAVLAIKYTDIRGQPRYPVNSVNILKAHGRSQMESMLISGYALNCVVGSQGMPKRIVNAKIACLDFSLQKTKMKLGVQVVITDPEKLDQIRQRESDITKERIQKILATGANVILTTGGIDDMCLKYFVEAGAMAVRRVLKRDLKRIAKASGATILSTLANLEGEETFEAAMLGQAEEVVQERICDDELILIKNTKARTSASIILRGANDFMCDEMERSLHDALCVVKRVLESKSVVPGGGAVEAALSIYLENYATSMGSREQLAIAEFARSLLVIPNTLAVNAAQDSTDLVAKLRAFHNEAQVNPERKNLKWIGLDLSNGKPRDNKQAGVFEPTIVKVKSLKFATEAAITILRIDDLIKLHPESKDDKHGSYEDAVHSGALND", "details": "protein TCP1 (P17987)"}, "[16]": {"target": "proteins of HEK293T cells transiently overexpressing caspase-6 (Homo sapiens, UniProt O14980)", "details": "protein XPO1 (O14980); exp_ref Probe; analysis C6"}, "[17]": {"target": "T2, proteins of HEK293T cells transiently overexpressing caspase-6 (Homo sapiens, UniProt P00390)", "T2 sequence (P00390 44-522)": "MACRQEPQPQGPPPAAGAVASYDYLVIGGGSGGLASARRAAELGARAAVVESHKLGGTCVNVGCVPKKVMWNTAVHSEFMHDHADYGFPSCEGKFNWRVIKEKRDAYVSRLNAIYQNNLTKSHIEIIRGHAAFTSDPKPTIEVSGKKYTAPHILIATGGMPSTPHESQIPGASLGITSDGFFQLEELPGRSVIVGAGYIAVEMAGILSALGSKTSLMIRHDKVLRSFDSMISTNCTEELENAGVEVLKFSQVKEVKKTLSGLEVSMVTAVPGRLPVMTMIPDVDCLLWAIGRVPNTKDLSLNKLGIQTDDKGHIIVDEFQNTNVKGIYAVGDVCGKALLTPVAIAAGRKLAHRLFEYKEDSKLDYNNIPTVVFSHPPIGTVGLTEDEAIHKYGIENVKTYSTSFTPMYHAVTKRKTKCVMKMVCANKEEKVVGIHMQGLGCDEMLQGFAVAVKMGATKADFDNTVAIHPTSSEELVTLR"}}}
{"compound": "C#CCOc1ccc([C@@H]2C[C@@H](C(=O)Nc3ccc(OC(F)(F)F)cc3)CN(S(=O)(=O)C=C)C2)cc1", "note": "(relative stereo) [13-t]", "values": [{"measurement": "enrich.exp.med", "setting": "[1]", "result": 0.4694}, {"measurement": "enrich.exp.med", "setting": "[2]; exp_ref Probe, analysis C6", "result": 0.2769}, {"measurement": "enrich.exp.med.lin", "setting": "[2]", "result": 1.2116}, {"measurement": "enrich.exp.med.log2", "setting": "[2]", "result": 0.2769}, {"measurement": "enrich.exp.med", "setting": "[3]", "result": -0.2955}, {"measurement": "enrich.exp.med", "setting": "[4]", "result": -2.018}, {"measurement": "enrich.exp.med.lin", "setting": "[5]; Expt Probe", "result": 59.486}, {"measurement": "enrich.exp.med.log2", "setting": "[5]; Expt Probe", "result": 5.894}, {"measurement": "enrich.exp.med", "setting": "[5]; exp_ref Probe", "result": 5.894}, {"measurement": "enrich.exp.med", "setting": "[6]", "result": 0.866}, {"measurement": "enrich.exp.med", "setting": "[7]", "result": -0.5222}, {"measurement": "enrich.exp.med", "setting": "[8]", "result": -0.1743}, {"measurement": "enrich.exp.med", "setting": "[9]", "result": -0.3681}, {"measurement": "enrich.exp.med", "setting": "[10]", "result": 0.3695}, {"measurement": "enrich.exp.med", "setting": "[11]", "result": -2.444}, {"measurement": "enrich.exp.med", "setting": "[12]", "result": -7.844}, {"measurement": "enrich.exp.med", "setting": "[13]", "result": 1.262}, {"measurement": "enrich.exp.med", "setting": "[14]", "result": 0.7525}, {"measurement": "enrich.exp.med", "setting": "[15]; exp_ref Probe, analysis C6", "result": 0.8619}, {"measurement": "enrich.exp.med.lin", "setting": "[15]", "result": 1.8174}, {"measurement": "enrich.exp.med.log2", "setting": "[15]", "result": 0.8619}, {"measurement": "enrich.exp.med", "setting": "[16]", "result": 1.753}, {"measurement": "enrich.exp.med", "setting": "[17]; Probe, protein GSR P00390", "result": -1.323}, {"measurement": "enrich.exp.med.lin", "setting": "[17]; protein GSR (P00390)", "result": 0.3998}, {"measurement": "enrich.exp.med.log2", "setting": "[17]; protein GSR (P00390)", "result": -1.323}]}
